Reference: US20040127447A1, “Augmentation of K+ channel expression using adenoviral vectors” (priority 2002, published 2004)
Like-named read-outs stand apart in the source and are kept apart here. Ends that are not written are not given here.

Columns and labels:
[1] = test system: PASMC K+ current (IK); assay: Whole-cell patch clamp of PASMCs; assay type: cell-based; conditions: normoxic-saline rat PASMCs
Description: Fresh PASMC's were isolated from fourth division PA's by enzymatic dispersion and studied using conventional whole-cell patch-clamp technique at room temperature, as previously described in Archer S L, et al. (1998) J. Clin. Invest. 101:2319-30, and Michelakis E D, et al. (2001) Am. J. Physiol. Lung Cell Mol. Physiol. 280:L1138-47. All cells were voltage-clamped at a holding potential of −70 mV. Currents were evoked in stepwise fashion from −70 mV to +70 mV with test pulses of 200 ms. Whole-cell currents were divided by the capacitance of the cell, yielding current density. The pipette solution (intracellular) contained (mmol/L): KCl 134, KH2PO4 1.2, MgCl2 1.0, HEPES 5, pH 7.30, Na2ATP 5 and EGTA 5.

[2] = test system: DASMC EM; assay: DASMC membrane potential EM (current clamp, DiBAC4(3)); assay type: cell-based, human
Description: (§1) Current and voltage clamp technique, SMC isolation and pipette solutions were performed as previously described in Michelakis E D, et al. (2002) Circ Res. 90:1307-15. The response to O2, ETC inhibitors and the membrane permeable H2O2 analog, t-butyl hydrogen peroxide, were compared between DASMCs enzymatically dispersed from fresh DAs versus those maintained in tissue culture for 72 hours (either under normoxic or hypoxic conditions).
DASMC EM was measured both using patch clamp technique in current clamp mode and noninvasively with DiBAC4(3) (20 μM, bis-barbituric acid oxonol), a potentiometric dye that increases green fluorescence upon depolarization. DiBAC4 loaded cells or intact DA rings were stimulated with multi-photon excitation at 740 nm and emission was measured in the green range, 505-530 nm. DASMCs were studied after culture in normoxic or hypoxic environment for 4-5 days. The acute change in EM that occurred in response to 4-AP (10 mM), KCL (80 mM) or a switch in PO2 from 40 to 120 mmHg was measured.

[3] = test system: DASMC K+ current (IK); assay: Whole-cell patch clamp of human DASMCs; assay type: cell-based; conditions: for IK at potentials close to the resting EM (-30 mV) / whole cell K+ current (IK): fresh human DASMC
Description: as §1
Cells were voltage clamped at a holding potential of −70 mV and currents were evoked by 10 mV steps to +50 mV using test pulses of 200 ms duration. Data were recorded and analyzed using pCLAMP 6.02 software (Axon Instruments, Foster City, Calif.). Current density was calculated (pA/pF) and plotted against voltage.

[4] = test system: human ductus arteriosus (DA) rings; assay: Human DA ring tension; conditions: for constriction of fresh human DA rings: hypoxia, 4-AP 1-10 mM, IBTx 200 nM
Description: DAs excised from 26 neonates with hypoplastic left heart syndrome during the Norwood procedure (age 9±2 days, 12 female, arterial PO2˜40 mmHg) were usedDAs were transported in iced saline, maintained in hypoxia and used within 1 hour. Ring tension was recorded as previously described in Michelakis E, et al. (2000) Lancet 356:134-7.
Optimal passive ring tension was determined to be 1 g, as defined by the maximal constriction to 80 mM KCl. Tension was recorded using a force transducer connected to a MacLab A-D convertor (AD Instruments, Toronto, Canada). Tension was recorded from rings bubbled with 95% N2 and 5% CO2 in Krebs' solution, to mimic in utero conditions (PO2 40 mmHg, pH 7.4, pCO2 40-50 mmHg). Normoxia was created by bubbling with 20%O2 and 5% CO2 (balance N2) resulting in PO2 150 mmHg, pH 7.4, and PCO2 40 mmHg. Optimal resting tension was previously found to be 1000 mg, as described in Michelakis E, et al. (2000) Lancet 356:134-7. To exclude the contribution of several endothelial-derived vasoactive substances, the Krebs' solution also contained meclofenamate 17 μM to inhibit PGHS and L-N^G-nitroarginine-methylester (L-NAME) 10^−5 M to inhibit NOS.

[5] = test system: DASMC mitochondria; assay: Mitochondrial membrane potential in DASMCs (JC-1, TMRM); assay type: cell-based, human
Description: Mitochondrial membrane potential (Δψm) was measured using two independent and well-validated probes JC-1 and TMRM (tetramethyl rhodamine methyl ester), as previously described in Michelakis E D, et al. (2002) Circ Res. 90:1307-15.
First-passage cultured DASMC were loaded with either JC-1 (1 μM) or TMRM (20 nM) for 30 minutes (37° C.) at 37 C. Confocal images were obtained within 30 minutes using a Zeiss Axiovert 100M inverted microscope equipped with an Apochromat 40×1.2 water-corrected objective. Settings (amplifier gain, pin hole size and filter set) were kept constant between experiments.
[…]. JC-1 fluoresces in the red spectra in hyperpolarized mitochondria (high Δψm) and in the green spectra in depolarized mitochondria (low Δψm). KCl (40 mM) was used to clamp the plasmalemmal membrane potential in some experiments. […] TMRM binds the inner and outer aspects of the inner mitochondrial membrane and accumulates in the mitochondria at greater quantities than predicted by the Nernst equation. TMRM fluorescence red in proportion to ψm. A 488 nm Argon laser was used for excitation and the resultant red/green fluorescence was quantified in channels 1 and 2 using LP 560 nm and BP 505-530 nm filters, respectively. 8-bit images were collected with a laser loiter time of 4.48 μs/pixel. Pinholes yielded optical slices of 1 μm. Results are expressed as the ratio of red/green channel fluorescence.

[6] = test system: human DA rings; assay: H2O2 production in DA rings (AmplexRed, lucigenin chemiluminescence)
Description: DA rings were loaded with lucigenin 5 μM and placed in a 2 ml heated cuvette at 37° C. Counts were recorded using a Packard 1900CA Liquid Scintillation Analyzer.
H2O2, was measured using a specific, fluorometric AmplexRed® assay, as previously described in Michelakis E D, et al. (2002 ) Circ Res. 90:1307-15. An independent, specific measure of the candidate redox mediator, H2O2, was made using the one-step, fluorometric Amplex Red (Molecular Probes, Eugene, Oreg.) assay. The assay detects H2O2 using 10-acetyl-3,7-dihydroxyphenoxazine (Amplex Red reagent) a stable probe that, in the presence of horseradish peroxidase (HRP), reacts with H2O2 with a 1:1 stoichiometry to produce the highly fluorescent substance, resorufin. The assay was calibrated (FIG. 15) and found to be linear over the range of 0.25 to 5.0 μM. Freshly harvested DA rings were placed in a normoxic or a hypoxic solution containing AmplexRed and, after 20 minutes, fluorescence was recorded (excitation 530 nm, emission 590 nm), see FIG. 15.

Nc1ccncc1 [4-AP, 4-aminopyridine]
IK in N-S PASMCs [1]: reversible inhibition | acute depolarization of ionically remodeled DASMCs ([2]; chronically normoxic, returned acutely to hypoxia, 4-AP 10 mM): loose their ability to depolarize | IK at potentials close to the resting EM (-30 mV) [3]: significant decreases | whole cell K+ current (IK) [3]: significantly inhibit | IK of DASMC from chronically normoxic DAs ([3]; returned to hypoxic conditions): unresponsive | constriction of fresh human DA rings [4]: significantly constricts

C=C(C)[C@H]1Cc2c(ccc3c2O[C@@H]2COc4cc(OC)c(OC)cc4[C@@H]2C3=O)O1 [rotenone]
ψm in DASMCs [5]: depolarizes | H2O2 production [6]: decreases | IK acutely suppressed by O2 [3]: precisely restoring the current | IK of DASMC from chronically normoxic DAs [3]: unresponsive | phenylephrine constriction [4]: unaltered | relaxation of chronically normoxic DA rings [4]: no longer causes relaxation | relaxation of the O2-preconstricted DA [4]: relax

CC(C)(C)OO [t-butyl-H2O2, t-butyl hydrogen peroxide]
EM of fresh hypoxic DASMCs ([2]; current clamp): depolarizes | depolarizing response in chronically normoxic DASMCs ([2]; current clamp): lost | IK in freshly dispersed DASMCs ([3]; voltage clamp): inhibits

antimycin
phenylephrine constriction ([4]; DA rings): unaltered | relaxation of the O2-preconstricted DA ([4]; normoxic DA rings): relax

iberiotoxin (QFTDVDCSVSKECWSVCKDLFGVDRGKCMGKKCRCYQ; ends and bridges not checked; cysteine pairing not given here; UniProt P24663 1-37, looked up) [IBTx]
IK at potentials close to the resting EM (-30 mV) [3]: minimal inhibition | whole cell K+ current (IK) [3]: significantly inhibit | constriction of fresh human DA rings [4]: does not
